The test system of the test is MV-4-11 cells. In words: Gene expression microarray analysis (Affymetrix PrimeView) and GSEA. The class given is cell-based, human. Details: RFU PODN (11730768_x_at) / Fold change /veh PODN (11730768_x_at) / RFU LINC00158 (11744669_a_at) / Fold change /veh LINC00158 (11744669_a_at) / RFU DUSP10 (11751237_a_at) / Fold change /veh DUSP10 (11751237_a_at) / RFU ID3 (11757404_x_at) / Fold change /veh ID3 (11757404_x_at) / RFU PLEKHG5 (11737974_s_at) / Fold change /veh PLEKHG5 (11737974_s_at) / RFU LRRC4B (11730491_at) / Fold change /veh LRRC4B (11730491_at) / RFU GIMAP4 (11747438_a_at) / Fold change /veh GIMAP4 (11747438_a_at) / RFU KRT8 (11758183_x_at) / Fold change /veh KRT8 (11758183_x_at) / RFU CNN1 (11734310_a_at) / Fold change /veh CNN1 (11734310_a_at) / RFU VPS37D (11726825_at) / Fold change /veh VPS37D (11726825_at) / RFU C10orf10 (11716522_x_at) / Fold change /veh C10orf10 (11716522_x_at) / RFU KIR2DL2 /// KIR2DL4 /// KIR2DL5A /// KIR2DL5B /// KIR2DS1 /// KIR2DS2 /// KIR2DS3 /// KIR2DS4 /// KIR3DL3 /// KIR3DL3 /// KIR3DS1 (11738374_at) / Fold change /veh KIR2DL2 /// KIR2DL4 /// KIR2DL5A /// KIR2DL5B /// KIR2DS1 /// KIR2DS2 /// KIR2DS3 /// KIR2DS4 /// KIR3DL3 /// KIR3DL3 /// KIR3DS1 (11738374_at) / RFU C1QL1 (11718748_at) / Fold change /veh C1QL1 (11718748_at) / RFU TMPRSS4 (11747572_a_at) / Fold change /veh TMPRSS4 (11747572_a_at) / RFU HAMP (11756126_x_at) / Fold change /veh HAMP (11756126_x_at) / RFU RNFT2 (11725882_a_at) / Fold change /veh RNFT2 (11725882_a_at) / RFU NR4A2 (11747474_a_at) / Fold change /veh NR4A2 (11747474_a_at) / RFU ABCC12 (11746883_a_at) / Fold change /veh ABCC12 (11746883_a_at) / RFU TMEM136 (11760407_x_at) / Fold change /veh TMEM136 (11760407_x_at) / RFU CLDN22 /// WWC2 (11732394_at) / Fold change /veh CLDN22 /// WWC2 (11732394_at) / RFU HLA-DPB1 (11760878_x_at) / Fold change /veh HLA-DPB1 (11760878_x_at) / RFU SPINT1 (11716480_a_at) / Fold change /veh SPINT1 (11716480_a_at) / RFU GAP43 (11754022_s_at) / Fold change /veh GAP43 (11754022_s_at) / RFU A4GNT (11735810_at) / Fold change /veh A4GNT (11735810_at) / RFU PRB3 (11715151_x_at) / Fold change /veh PRB3 (11715151_x_at) / RFU TUBB4B (11761932_at) / Fold change /veh TUBB4B (11761932_at) / RFU CAPN14 (11732068_a_at) / Fold change /veh CAPN14 (11732068_a_at) / RFU TMCC2 (11721928_a_at) / Fold change /veh TMCC2 (11721928_a_at) / RFU IRGQ (11745062_a_at) / Fold change /veh IRGQ (11745062_a_at) / RFU FAM174B (11720279_a_at) / Fold change /veh FAM174B (11720279_a_at) / RFU TMPRSS4 (11748680_a_at) / Fold change /veh TMPRSS4 (11748680_a_at) / RFU FAM212B (11763350_a_at) / Fold change /veh FAM212B (11763350_a_at) / RFU PLEKHG5 (11743358_a_at) / Fold change /veh PLEKHG5 (11743358_a_at) / RFU ZSCAN30 (11745921_a_at) / Fold change /veh ZSCAN30 (11745921_a_at) / RFU CMKLR1 (11741424_a_at) / Fold change /veh CMKLR1 (11741424_a_at) / RFU LOC101060620 /// MAPK8IP1 (11723275_at) / Fold change /veh LOC101060620 /// MAPK8IP1 (11723275_at) / RFU SPTSSB (11747773_x_at) / Fold change /veh SPTSSB (11747773_x_at) / RFU PRSS12 (11739890_at) / Fold change /veh PRSS12 (11739890_at) / RFU BIN1 (11741810_x_at) / Fold change /veh BIN1 (11741810_x_at) / RFU WNT11 (11732464_a_at) / Fold change /veh WNT11 (11732464_a_at) / RFU C10orf10 (11716521_a_at) / Fold change /veh C10orf10 (11716521_a_at) / RFU C5orf56 (11738089_at) / Fold change /veh C5orf56 (11738089_at) / RFU CYB561 (11721691_x_at) / Fold change /veh CYB561 (11721691_x_at) / RFU ANKRD19P (11752326_a_at) / Fold change /veh ANKRD19P (11752326_a_at) / RFU OR2T12 /// OR2T33 /// OR2T8 (11738714_s_at) / Fold change /veh OR2T12 /// OR2T33 /// OR2T8 (11738714_s_at) / RFU VCAN (11748164_a_at) / Fold change /veh VCAN (11748164_a_at) / RFU JSRP1 (11732532_at) / Fold change /veh JSRP1 (11732532_at) / RFU KRTAP10-11 (11738290_x_at) / Fold change /veh KRTAP10-11 (11738290_x_at) / RFU MYO3A (11730013_a_at) / Fold change /veh MYO3A (11730013_a_at) / RFU EBF3 (11725865_a_at) / Fold change /veh EBF3 (11725865_a_at) / RFU CAMK2N1 (11719241_x_at) / Fold change /veh CAMK2N1 (11719241_x_at) / RFU C5orf56 (11738088_a_at) / Fold change /veh C5orf56 (11738088_a_at) / RFU OLFML3 (11715873_a_at) / Fold change /veh OLFML3 (11715873_a_at) / RFU LOC100653217 /// NTM (11731650_a_at) / Fold change /veh LOC100653217 /// NTM (11731650_a_at) / RFU MAPK11 (11762145_a_at) / Fold change /veh MAPK11 (11762145_a_at) / RFU FIZ1 (11724087_x_at) / Fold change /veh FIZ1 (11724087_x_at) / RFU OASL (11726364_x_at) / Fold change /veh OASL (11726364_x_at) / RFU SOX15 (11748057_x_at) / Fold change /veh SOX15 (11748057_x_at) / RFU CD79A (11719716_a_at) / Fold change /veh CD79A (11719716_a_at) / RFU HIST1H1D (11736915_at) / Fold change /veh HIST1H1D (11736915_at) / RFU CASKIN2 (11723855_a_at) / Fold change /veh CASKIN2 (11723855_a_at) / RFU LOC730098 (11760151_x_at) / Fold change /veh LOC730098 (11760151_x_at) / RFU OR4N2 (11742367_at) / Fold change /veh OR4N2 (11742367_at) / RFU PRRT2 (11749266_a_at) / Fold change /veh PRRT2 (11749266_a_at) / RFU SNX32 (11753110_a_at) / Fold change /veh SNX32 (11753110_a_at) / RFU CDHR5 (11726645_a_at) / Fold change /veh CDHR5 (11726645_a_at) / RFU RCAN1 (11760418_a_at) / Fold change /veh RCAN1 (11760418_a_at) / RFU FAM167A (11723789_a_at) / Fold change /veh FAM167A (11723789_a_at) / RFU FAM26E (11764081_at) / Fold change /veh FAM26E (11764081_at) / RFU ISYNA1 (11749810_s_at) / Fold change /veh ISYNA1 (11749810_s_at) / RFU ACY1 (11761880_at) / Fold change /veh ACY1 (11761880_at) / RFU 11764098_at / Fold change /veh 11764098_at / RFU SAMD14 (11745864_x_at) / Fold change /veh SAMD14 (11745864_x_at) / RFU NPB (11741838_a_at) / Fold change /veh NPB (11741838_a_at) / RFU TMPRSS6 (11731388_a_at) / Fold change /veh TMPRSS6 (11731388_a_at) / RFU KRTAP10-2 (11738614_at) / Fold change /veh KRTAP10-2 (11738614_at) / RFU ARHGAP8 /// PRR5-ARHGAP8 (11727945_x_at) / Fold change /veh ARHGAP8 /// PRR5-ARHGAP8 (11727945_x_at) / RFU KRTAP5-7 /// NADSYN1 (11734609_at) / Fold change /veh KRTAP5-7 /// NADSYN1 (11734609_at) / RFU RASL12 (11751679_a_at) / Fold change /veh RASL12 (11751679_a_at) / RFU CDKN2B (11736163_a_at) / Fold change /veh CDKN2B (11736163_a_at) / RFU PRF1 (11729649_at) / Fold change /veh PRF1 (11729649_at) / RFU, ZNF638 /// ZNF638-IT1 / Fold change vs veh, ZNF638 /// ZNF638-IT1 / RFU, PANK3 / Fold change vs veh, PANK3 / RFU, SH3YL1 / Fold change vs veh, SH3YL1 / RFU, ZEB2 / Fold change vs veh, ZEB2 / RFU, NRIP1 / Fold change vs veh, NRIP1 / RFU, PTTG1IP / Fold change vs veh, PTTG1IP / RFU, CAPN2 / Fold change vs veh, CAPN2 / RFU, MED14 / Fold change vs veh, MED14 / RFU, SNORA58 / Fold change vs veh, SNORA58 / RFU, C1orf63 / Fold change vs veh, C1orf63 / RFU, LRRFIP1 / Fold change vs veh, LRRFIP1 / RFU, NDUFAF7 / Fold change vs veh, NDUFAF7 / RFU, SLC12A2 / Fold change vs veh, SLC12A2 / RFU, IBTK / Fold change vs veh, IBTK / RFU, ESF1 / Fold change vs veh, ESF1 / Fold change vs veh, TMEM50B / RFU, TAOK1 / Fold change vs veh, TAOK1 / RFU, ACBD3 / Fold change vs veh, ACBD3 / RFU, TMA16 / Fold change vs veh, TMA16 / RFU, RWDD3 / Fold change vs veh, RWDD3 / RFU, BCAT1 / Fold change vs veh, BCAT1 / RFU, EDEM3 / Fold change vs veh, EDEM3 / RFU, TMEM33 / Fold change vs veh, TMEM33 / RFU, WDR75 / Fold change vs veh, WDR75 / RFU, AHCTF1 / Fold change vs veh, AHCTF1 / RFU, TFRC / Fold change vs veh, TFRC / RFU, ZDHHC17 / Fold change vs veh, ZDHHC17 / RFU, NOM1 / Fold change vs veh, NOM1 / RFU, ARL8B / Fold change vs veh, ARL8B / RFU, ZBTB11 / Fold change vs veh, ZBTB11 / RFU, TAMM41 / Fold change vs veh, TAMM41 / RFU, KIAA1704 /// LOC100996395 / Fold change vs veh, KIAA1704 /// LOC100996395 / RFU, ING1 / Fold change vs veh, ING1 / RFU, TRMT61B / Fold change vs veh, TRMT61B / RFU, FUBP3 / Fold change vs veh, FUBP3 / RFU, TP53 / Fold change vs veh, TP53 / RFU, TNKS2 / Fold change vs veh, TNKS2 / RFU, ZFP14 / Fold change vs veh, ZFP14 / RFU, ACTR2 / Fold change vs veh, ACTR2 / RFU, PPP3R1 / Fold change vs veh, PPP3R1 / RFU, PIK3R1 / Fold change vs veh, PIK3R1 / RFU, HNRNPA1 / Fold change vs veh, HNRNPA1 / RFU, RNF170 / Fold change vs veh, RNF170 / RFU, ZNF28 / Fold change vs veh, ZNF28 / RFU, RNGTT / Fold change vs veh, RNGTT / RFU, OGT / Fold change vs veh, OGT / RFU, BRD1 / Fold change vs veh, BRD1 / RFU, MARS / Fold change vs veh, MARS / RFU, ZNF655 / Fold change vs veh, ZNF655 / RFU, FAHD1 / Fold change vs veh, FAHD1 / RFU, BDP1 / Fold change vs veh, BDP1 / RFU, LRRCC1 / Fold change vs veh, LRRCC1 / RFU, ARID1A / Fold change vs veh, ARID1A / RFU, ZNF146 / Fold change vs veh, ZNF146 / RFU, ZNF330 / Fold change vs veh, ZNF330 / RFU, GPN3 / Fold change vs veh, GPN3 / RFU, C9orf123 / Fold change vs veh, C9orf123 / RFU, N4BP2L2 / Fold change vs veh, N4BP2L2 / RFU, ARFIP1 / Fold change vs veh, ARFIP1 / RFU, FAM179B / Fold change vs veh, FAM179B / RFU, BCL10 / Fold change vs veh, BCL10 / RFU, UHRF1BP1L / Fold change vs veh, UHRF1BP1L / RFU, BET1 / Fold change vs veh, BET1 / RFU, CNOT2 / Fold change vs veh, CNOT2 / RFU, ZNF268 / Fold change vs veh, ZNF268 / Fold change vs veh, ZNF507 / RFU, DGCR2 / Fold change vs veh, DGCR2 / RFU, WDSUB1 / Fold change vs veh, WDSUB1 / Fold change vs veh, HSP90B1 /// MIR3652 / RFU, ADSS / Fold change vs veh, ADSS / RFU, GK / Fold change vs veh, GK / RFU, ZNF148 / Fold change vs veh, ZNF148 / RFU, TAF9 / Fold change vs veh, TAF9 / RFU, SLC1A5 / Fold change vs veh, SLC1A5 / RFU, SLMO2 / Fold change vs veh, SLMO2 / RFU, ABCC4 / Fold change vs veh, ABCC4 / RFU, LOC101060439 /// RAP1B / Fold change vs veh, LOC101060439 /// RAP1B / RFU, RFX7 / Fold change vs veh, RFX7 / RFU, GTPBP10 / Fold change vs veh, GTPBP10 / RFU, CNEP1R1 / Fold change vs veh, CNEP1R1 / RFU, BIVM-ERCC5 /// ERCC5 / Fold change vs veh, BIVM-ERCC5 /// ERCC5 / RFU, ILF3 / Fold change vs veh, ILF3 / RFU 11762660_at / Fold change /veh 11762660_at / RFU VCAN (11757783_s_at) / Fold change /veh VCAN (11757783_s_at) / RFU DDX43 (11728927_at) / Fold change /veh DDX43 (11728927_at) / RFU KRT8 (11758188_x_at) / Fold change /veh KRT8 (11758188_x_at) / RFU NKD1 (11759106_at) / Fold change /veh NKD1 (11759106_at) / RFU SRD5A1 (11742802_a_at) / Fold change /veh SRD5A1 (11742802_a_at) / RFU TPSAB1 /// TPSB2 (11721975_s_at) / Fold change /veh TPSAB1 /// TPSB2 (11721975_s_at) / RFU GSTM3 (11746129_a_at) / Fold change /veh GSTM3 (11746129_a_at) / RFU IL23R (11737362_x_at) / Fold change /veh IL23R (11737362_x_at) / RFU TMEM51 (11727254_a_at) / Fold change /veh TMEM51 (11727254_a_at) / RFU PIWIL2 (11732686_x_at) / Fold change /veh PIWIL2 (11732686_x_at) / RFU ORM1 (11744905_x_at) / Fold change /veh ORM1 (11744905_x_at) / RFU CCDC152 (11743942_at) / Fold change /veh CCDC152 (11743942_at) / RFU ECM1 (11717891_a_at) / Fold change /veh ECM1 (11717891_a_at) / RFU IL23R (11748794_a_at) / Fold change /veh IL23R (11748794_a_at) / RFU TNFAIP8L3 (11732012_x_at) / Fold change /veh TNFAIP8L3 (11732012_x_at) / RFU MBOAT4 (11741988_at) / Fold change /veh MBOAT4 (11741988_at) / RFU 11764193_at / Fold change /veh 11764193_at / RFU TMEM53 (11763286_at) / Fold change /veh TMEM53 (11763286_at) / RFU MAGEB2 (11727129_at) / Fold change /veh MAGEB2 (11727129_at) / RFU TMEM200A (11744735_a_at) / Fold change /veh TMEM200A (11744735_a_at) / RFU CCDC152 (11751479_a_at) / Fold change /veh CCDC152 (11751479_a_at) / RFU FAM211A (11726209_a_at) / Fold change /veh FAM211A (11726209_a_at) / RFU RGS16 (11746705_a_at) / Fold change /veh RGS16 (11746705_a_at) / RFU VCAN (11755009_s_at) / Fold change /veh VCAN (11755009_s_at) / RFU RHOB (11743442_s_at) / Fold change /veh RHOB (11743442_s_at) / RFU RGS16 (11720943_a_at) / Fold change /veh RGS16 (11720943_a_at) / RFU RGS16 (11720944_at) / Fold change /veh RGS16 (11720944_at) / RFU, VPS4B / Fold change vs veh, VPS4B / RFU, CREB1 / Fold change vs veh, CREB1 / RFU, DNAJC13 / Fold change vs veh, DNAJC13 / RFU, GNAQ / Fold change vs veh, GNAQ / RFU, CDK5R1 / Fold change vs veh, CDK5R1 / RFU, ZRANB3 / Fold change vs veh, ZRANB3 / RFU, CUL4A / Fold change vs veh, CUL4A / RFU, CCNY / Fold change vs veh, CCNY / RFU, UFL1 / Fold change vs veh, UFL1 / RFU, COG3 / Fold change vs veh, COG3 / RFU, DIAPH2 / Fold change vs veh, DIAPH2 / RFU, SKA2 / Fold change vs veh, SKA2 / RFU, AFF3 / Fold change vs veh, AFF3 / RFU, LMF1 / Fold change vs veh, LMF1 / RFU, IPO11 / Fold change vs veh, IPO11 / RFU, DFFB / Fold change vs veh, DFFB / RFU, FOXP1 / Fold change vs veh, FOXP1 / RFU, CARD8 / Fold change vs veh, CARD8 / RFU, STRN3 / Fold change vs veh, STRN3 / RFU, ADK / Fold change vs veh, ADK / RFU, RASSF2 / Fold change vs veh, RASSF2 / RFU, WIPF1 / Fold change vs veh, WIPF1 / RFU, LARP1B / Fold change vs veh, LARP1B / RFU, RASA1 / Fold change vs veh, RASA1 / RFU, RB1 / Fold change vs veh, RB1 / RFU, PPFIA1 / Fold change vs veh, PPFIA1 / RFU, MAT2A / Fold change vs veh, MAT2A / RFU, CCT5 / Fold change vs veh, CCT5 / RFU, WDR92 / Fold change vs veh, WDR92 / RFU, CUX1 / Fold change vs veh, CUX1 / RFU, TTC7A / Fold change vs veh, TTC7A / RFU, TMEM135 / Fold change vs veh, TMEM135 / RFU, DEPTOR / Fold change vs veh, DEPTOR / RFU, CPM / Fold change vs veh, CPM / RFU, DNAJB6 / Fold change vs veh, DNAJB6 / RFU, CACNA2D3 / Fold change vs veh, CACNA2D3 / RFU, DTX4 / Fold change vs veh, DTX4 / RFU, TFCP2 / Fold change vs veh, TFCP2 / RFU, GMCL1 /// GMCL1P1 / Fold change vs veh, GMCL1 /// GMCL1P1 / RFU, AEBP2 / Fold change vs veh, AEBP2 / RFU, SNHG1 /// SNORD22 /// SNORD25 /// SNORD26 /// SNORD27 /// SNORD28 /// SNORD29 /// SNORD31 / Fold change vs veh, SNHG1 /// SNORD22 /// SNORD25 /// SNORD26 /// SNORD27 /// SNORD28 /// SNORD29 /// SNORD31 / Fold change (Aza/veh), C12orf56 (ProbeSet 11735607_a_at) / Fold change (ACY-1035/veh), C12orf56 (ProbeSet 11735607_a_at) / Fold change (Aza/veh), FGFR1OP (ProbeSet 11751329_s_at) / Fold change (ACY-1035/veh), FGFR1OP (ProbeSet 11751329_s_at) / Fold change (Aza/veh), VPS36 (ProbeSet 11739960_a_at) / Fold change (ACY-1035/veh), VPS36 (ProbeSet 11739960_a_at) / RFU SYPL1 (11715823_x_at) / Fold change /veh SYPL1 (11715823_x_at) / RFU IGFBP7 (11715501_s_at) / Fold change /veh IGFBP7 (11715501_s_at) / RFU REEP3 (11722064_at) / Fold change /veh REEP3 (11722064_at) / RFU IGLL1 (11728026_x_at) / Fold change /veh IGLL1 (11728026_x_at): dose or concentration left out as unconfirmed. The settings on record: ProbeSet 11716331_a_at; LIST D.

Molecules are shown by their SMILES.

With `Nc1ncn([C@@H]2O[C@H](CO)[C@@H](O)[C@H]2O)c(=O)n1` [azacitidine], the “Fold change vs veh, DNAJB6” value was 0.52.
